Experimental data as given in patent EP0857721A1, “ACRIDONE COMPOUNDS” (Eisai Co., Ltd., priority 1995, dated 1997).

test system: RBL-2H3 cells; assay: Inhibition of serotonin liberation from IgE-sensitized, antigen-stimulated RBL-2H3 cells ([3H]-serotonin); format: cell-based; settings: Rattus norvegicus; IgE-sensitized RBL-2H3 cells stimulated with specific antigen; [3H]-labeled serotonin
Source text: Under the action of an antigen specific to the IgE antibody, RBL-2H3 cells, i.e., a cell line originating in rat cells, not only liberate histamine and serotonin but also produce and liberate cytokines such as TNF" serving as an inflammatory mediator and prostaglandins. In this experimental system, the effects of the compounds of the present invention of inhibiting the liberation of various mediators were examined by using serotonin as an indication.
The cells were labeled with [^3H]-labeled serotonin and, at the same time, sensitized with the IgE antibody. Next, these cells were incubated in the presence of the acridone compounds according to the present invention and then stimulated with the specific antigen. Then the serotonin liberation inhibitory activity of each acridone compound was calculated from the amount of the [^3H]-labeled serotonin thus liberated into the medium due to the above-mentioned stimulation and the amount of the [^3H]-labeled serotonin liberated into the medium by the same experimental procedure as the one described above but adding no acridone compound of the present invention.

Structure (SMILES)	IC50 [µM]
Cc1ccc2c(=O)c3c(CCC(=O)O)cccc3n(CCCNCc3ccccc3)c2c1C [Compound 5]	3
Cc1ccc2c(=O)c3c(C(C)CC(=O)O)cccc3n(CCCNCc3ccccc3)c2c1C (stereo not shown) [Compound 8]	8
Cc1ccc2c(=O)c3c(C(C)CC(=O)O)cccc3n(CCCNCc3ccc(Cl)cc3Cl)c2c1C (stereo not shown) [Compound 9]	10
Cc1ccc2c(=O)c3c(CC(=O)O)cccc3n(CCCNCc3cc4ccccc4o3)c2c1C [Compound 11]	0.5
Cc1ccc2c(=O)c3c(CC(=O)O)cccc3n(CCCNCc3ccco3)c2c1C [Compound 12]	0.5
Cc1ccc2c(=O)c3c(CC(=O)O)cccc3n(CCCN)c2c1C [Compound 14]	10
Cc1ccc2c(=O)c3c(C(C)CC(=O)O)cccc3n(CCCN)c2c1C (stereo not shown) [Compound 18]	10
CCOC(=O)Cc1cccc2c1c(=O)c1ccc(C)c(C)c1n2CCCNCc1ccccc1 [Compound 21]	8
COC(=O)CCc1cccc2c1c(=O)c1ccc(C)c(C)c1n2CCCNCc1ccccc1 [Compound 22]	3
Cc1ccc2c(=O)c3c(CC(=O)O)cccc3n(CCCNCc3ccc(Cl)c(Cl)c3O)c2c1C [Compound 23]	8
Cc1ccc2c(=O)c3c(CC(=O)O)cccc3n(CCCNCc3ccc(Cl)c(O)c3Cl)c2c1C [Compound 24]	8
Cc1ccc2c(=O)c3c(CC(=O)O)cccc3n(CCCN(C)Cc3ccc(Cl)c(O)c3Cl)c2c1C [Compound 25]	6
Cc1ccc(CNCCCn2c3cccc(CC(=O)O)c3c(=O)c3ccc(C)c(C)c32)c(C)c1 [Compound 26]	10
Cc1ccc(CN(C)CCCn2c3cccc(CC(=O)O)c3c(=O)c3ccc(C)c(C)c32)c(C)c1 [Compound 27]	10
Cc1ccc2c(=O)c3c(CC(=O)O)cccc3n(CCCNCc3ccc(C(F)(F)F)cc3C(F)(F)F)c2c1C [Compound 29]	8
Cc1ccc2c(=O)c3c(CC(=O)O)cccc3n(CCCNCc3ccc(Cl)cc3O)c2c1C [Compound 30]	2
Cc1ccc2c(=O)c3c(CC(=O)O)cccc3n(CCCNCc3ccc(O)cc3)c2c1C [Compound 31]	1
Cc1ccccc1CNCCCn1c2ccccc2c(=O)c2ccc(C)c(C)c21 [Compound 32]	1
Cc1cccc(CNCCCn2c3ccccc3c(=O)c3ccc(C)c(C)c32)c1 [Compound 33]	2
Cc1ccc2c(=O)c3ccccc3n(CCCNCc3cccc(C#N)c3)c2c1C [Compound 35]	3
Cc1ccc2c(=O)c3ccccc3n(CCCNCc3ccc(C#N)cc3)c2c1C [Compound 36]	2
Cc1ccc2c(=O)c3ccccc3n(CCCNCc3cccc(C(F)(F)F)c3)c2c1C [Compound 38]	2
Cc1ccc2c(=O)c3ccccc3n(CCCNCc3ccccc3F)c2c1C [Compound 41]	3
Cc1ccc2c(=O)c3ccccc3n(CCCNCc3cccc(F)c3)c2c1C [Compound 42]	2
Cc1ccc2c(=O)c3ccccc3n(CCCNCc3ccc(F)cc3)c2c1C [Compound 43]	2
Cc1ccc2c(=O)c3ccccc3n(CCCNCc3ccccc3Br)c2c1C [Compound 44]	5
Cc1ccc2c(=O)c3ccccc3n(CCCNCc3cccc(Br)c3)c2c1C [Compound 45]	2

Structure (SMILES)	IC50 [µM]
Cc1cc(CNCCCn2c3ccccc3c(=O)c3ccc(C)c(C)c32)ccc1O [Compound 46]	4
Cc1cc(CNCCCn2c3ccccc3c(=O)c3ccc(C)c(C)c32)cc(C)c1O [Compound 47]	7
Cc1ccc2c(=O)c3ccccc3n(CCCNCc3c(Cl)cccc3Cl)c2c1C [Compound 48]	1
COC(=O)c1ccc(CNCCCn2c3ccccc3c(=O)c3ccc(C)c(C)c32)cc1 [Compound 50]	4
Cc1ccc2c(=O)c3ccccc3n(CCCNCc3ccc(C(N)=O)cc3)c2c1C [Compound 55]	10
Cc1ccc2c(=O)c3ccccc3n(CCCNCc3cccc(C(=O)O)c3)c2c1C [Compound 56]	7
Cc1ccc2c(=O)c3ccccc3n(CCCNCc3ccccc3C(F)(F)F)c2c1C [Compound 61]	1
Cc1ccc(CNCCCn2c3ccccc3c(=O)c3ccc(C)c(C)c32)cc1 [Compound 62]	1
Cc1ccc2c(=O)c3ccccc3n(CCCNCc3ccccc3Cl)c2c1C [Compound 63]	10
Cc1ccc2c(=O)c3ccccc3n(CCCNCc3cccc(Cl)c3)c2c1C [Compound 64]	5
Cc1ccc2c(=O)c3ccccc3n(CCCNCc3ccc(Br)cc3)c2c1C [Compound 66]	5
Cc1ccc2c(=O)c3ccccc3n(CCCNCc3ccc(Cl)cc3Cl)c2c1C [Compound 67]	1
CNS(=O)(=O)c1ccc(CNCCCn2c3ccccc3c(=O)c3ccc(C)c(C)c32)cc1 [Compound 69]	7
Cc1ccc2c(=O)c3ccccc3n(CCCNCc3ccc(S(=O)(=O)N(C)C)cc3)c2c1C [Compound 70]	8
Cc1ccc2c(=O)c3ccccc3n(CCCNOCc3ccccc3)c2c1C [Compound 72]	2
Cc1ccc2c(=O)c3ccccc3n(CCCN(CCC#N)Cc3ccccc3)c2c1C [Compound 75]	3
Cc1ccc2c(=O)c3ccccc3n(CCCN(CCC(N)=O)Cc3ccccc3)c2c1C [Compound 76]	4
Cc1ccc2c(=O)c3ccccc3n(CCCN(CCO)Cc3ccccc3)c2c1C [Compound 77]	1
Cc1cc(CN(C)CCCn2c3ccccc3c(=O)c3ccc(C)c(C)c32)cc(C)c1O [Compound 79]	7
Cc1ccc2c(=O)c3ccccc3n(CCCNc3cccc(-c4nnn[nH]4)c3)c2c1C [Compound 80]	11
COc1cccc(NCCCn2c3ccccc3c(=O)c3ccc(C)c(C)c32)c1 [Compound 81]	10
Cc1ccc2c(=O)c3ccccc3n(CCCN(C3CCCCC3)C3CCCCC3)c2c1C [Compound 83]	5
Cc1ccc(CNCCCn2c3cc(F)ccc3c(=O)c3ccc(C)c(C)c32)cc1 [Compound 86]	3
COc1ccc2c(=O)c3ccc(C)c(C)c3n(CCCNCc3ccc(C)cc3)c2c1 [Compound 87]	2
COc1cccc2c1c(=O)c1ccc(C)c(C)c1n2CCCNCc1ccc(C)cc1 [Compound 88]	2
CCN(CCCn1c2cccc(CC(=O)O)c2c(=O)c2ccc(C)c(C)c21)Cc1ccccc1 [Compound 91]	8
Cc1ccc(CN(C)CCCn2c3cccc(CC(=O)O)c3c(=O)c3ccc(C)c(C)c32)cc1 [Compound 95]	10

Structure (SMILES)	IC50 [µM]
Cc1ccc2c(=O)c3c(CC(=O)O)cccc3n(CCCN(C)Cc3cccc4ccccc34)c2c1C [Compound 97]	10
COc1ccc(CNCCCn2c3cccc(CC(=O)O)c3c(=O)c3ccc(C)c(C)c32)c(OC)c1 [Compound 99]	10
Cc1ccc2c(=O)c3c(CC(=O)O)cccc3n(CCCNCc3ccc(F)cc3F)c2c1C [Compound 100]	10
Cc1ccc2c(=O)c3c(CC(=O)O)cccc3n(CCCNCc3ccc(F)c(F)c3)c2c1C [Compound 103]	3
Cc1ccc2c(=O)c3c(CC(=O)O)cccc3n(CCCNCc3ccc(F)cc3)c2c1C [Compound 104]	5
Cc1ccc2c(=O)c3c(CC(=O)O)cccc3n(CCCNCc3ccccc3Cl)c2c1C [Compound 105]	5
Cc1ccc2c(=O)c3c(CC(=O)O)cccc3n(CCCNCc3cccc(Cl)c3)c2c1C [Compound 106]	10
Cc1ccc2c(=O)c3c(CC(=O)O)cccc3n(CCCNCc3ccccc3F)c2c1C [Compound 107]	6
Cc1ccc2c(=O)c3c(CC(=O)O)cccc3n(CCCNCc3cccc(F)c3)c2c1C [Compound 108]	5
Cc1ccc2c(=O)c3c(CC(=O)O)cccc3n(CCCN(CCO)Cc3ccccc3)c2c1C [Compound 109]	3
Cc1ccc2c(=O)c3c(CC(=O)O)cccc3n(CCCN(C)CCc3ccccc3)c2c1C [Compound 113]	8
Cc1ccc2c(=O)c3c(CC(=O)O)cccc3n(CCCNCc3ccccc3C(F)(F)F)c2c1C [Compound 116]	3
Cc1ccc2c(=O)c3ccccc3n(Cc3ccccc3CN)c2c1C [Compound 117]	10
Cc1ccc2c(=O)c3ccccc3n(Cc3ccc(CN)cc3)c2c1C [Compound 119]	4
Cc1ccc2c(=O)c3ccccc3n(Cc3cccc(CN)n3)c2c1C [Compound 120]	8
Cc1ccc2c(=O)c3ccccc3n(Cc3ccc(CNCc4ccco4)cc3)c2c1C [Compound 125]	10
Cc1ccc2c(=O)c3ccccc3n(Cc3ccc(CNCc4ncc[nH]4)cc3)c2c1C [Compound 126]	10
Cc1ccc2c(=O)c3ccccc3n(Cc3ccccc3CNCc3ncc[nH]3)c2c1C [Compound 127]	5
Cc1ccc2c(=O)c3ccccc3n(Cc3cccc(CNCc4ccccc4)n3)c2c1C [Compound 128]	1
Cc1ccc2c(=O)c3ccccc3n(CC=CCNCc3ccccc3)c2c1C [Compound 129]	8
Cc1ccc2c(=S)c3ccccc3n(CCCN)c2c1C [Compound 130]	10
Cc1ccc2c(=S)c3ccccc3n(CCCNCc3ccccc3)c2c1C [Compound 131]	10
Cc1ccc2c(=O)c3ccccc3n(Cc3ccc(CNCc4ccccc4)o3)c2c1C [Compound 133]	2
Cc1ccc2c(=O)c3c(CC(=O)N(C)C)cccc3n(CCCN(C)Cc3ccccc3)c2c1C [Compound 136]	10
Cc1ccc2c(=O)c3c(C(C)C(=O)O)cccc3n(CCCN(C)Cc3ccccc3)c2c1C (stereo not shown) [Compound 140]	4
